“Also recorded” adds a separate entry of the source. Like-named read-outs stand apart in the source and are kept apart here. Marks after values point to notes of the source that are not given here.
Legend:
Type in all cases: cell-based, human
MES-SA/Dx5 cells [1] = assay: Drug efflux by flow cytometry; conditions: loaded 5 h with 10 μM
Experimental: For further evidence that Tat-ELP-GFLG-DOX (SEQ ID NO: 3) can bypass the drug efflux pump, flow cytometry was used to analyze drug efflux from cells treated with free DOX or with Tat-ELP-GFLG-DOX (SEQ ID NO: 3). Cells were loaded for 5 h with either 10 μM DOX or Tat-ELP-GFLG-DOX (SEQ ID NO: 3), then the drug was removed and fresh media was replaced. Cells were collected and analyzed for DOX content using flow cytometry. […] The cells with low DOX fluorescence have pumped the drug out. As time passes after removal of the drug, the DOX positive peak gets lower in intensity and becomes a smaller percentage of the population. This illustrates the removal of DOX from theses cells with time after washing the drug out of the media. […] This means that all cells have the same amount of drug in them. This single peak is still evident at all time points after removal of the drug. This means that these cells are unable to pump the ELP delivered DOX out.

MES-SA cells [2] = assay: Confocal fluorescence microscopy of intracellular localization; conditions: 10 μM, after 1 h exposure; listed as free drug
Experimental: 1.7. Laser Scanning Confocal Fluorescence Microscopy. MES-SA cells were plated on 22 mm^2 cover slips at approximately 50% confluence and treated as described above with Tat-ELP-GFLG-Dox (SEQ ID NO: 3). Cells were rinsed with PBS at the indicated times, fixed with paraformaldehyde (PFA, 2% v/v) and visualized using a TCS SP2 laser scanning confocal microscope with a 100× oil immersion objective (Leica, Wetzlar, Germany). PMT voltages were lowered for imaging of cells treated at 42° C. during image acquisition to maximize image resolution and intensity.
3.4. Cellular Distribution. To confirm that Tat-ELP-GFLG-Dox (SEQ ID NO: 3) was internalized and not merely attached to the cell exterior, the cellular distribution of the ELP-delivered drug was examined by confocal fluorescence microscopy. MES-SA cells were treated for 1 h at 37° C. and 42° C. with 10 μM Tat-ELP1-GFLG-Dox (SEQ ID NO: 3). The cells were rinsed and analyzed immediately after treatment and 24 h later using the intrinsic Dox fluorescence. […] Untreated cells had no signal under the imaging settings used, ruling out any contribution to the images from autofluorescence (FIG. 7B, right panel).

MES-SA cells [3] = assay: Caspase activation, FLICA polycaspase assay with flow cytometry; conditions: 10 μM, 1 h
Experimental: MES-SA cells were treated for 1 h at 37 or 42° C. with Tat-ELP-GFLG-DOX (SEQ ID NO: 3), the control construct lacking the Tat sequence, with free DOX. Cells were harvested after the 1 h exposure, and caspase activity was detected using a fluorescent caspase inhibitor (Immunochemistry Technologies, Bloomington, Minn.) and flow cytometry.
Caspase activation was measured using a carboxyfluorescein FLICA polycaspase assay (Immunochemistry Technologies, Bloomington, Minn.). Cells were treated as described above with the indicated protein, collected by trypsinization, and stained for 2 h at 37° C. with the carboxyfluorescein FLICA reagent as described by the manufacturer. Cells were rinsed twice and analyzed for caspase activation by flow cytometry using a Cytomics FC 500 flow cytometer (n=5,000 cells). Forward versus side scatter gating was used to eliminate cell debris from the analysis, and a histogram of fluorescein fluorescence (channel FL1) was bimodal with peaks for caspase positive and caspase negative cells. The percentage of caspase positive cells was determined from the histograms and expressed as an average of 3 experiments.
MES-SA cells were treated as described above, cells were harvested after the 1 h exposure, and caspase activity was detected using a fluorescent caspase inhibitor and flow cytometric analysis. […] Cell numbers under each peak were quantified and averaged to determine the percentage of the cell population in which caspases were activated under each treatment condition. […] In fact, the percent of caspase positive cells was enhanced almost 4 fold when cells were treated with Tat-ELP1-GFLG-Dox (SEQ ID NO: 3) at 42° C. versus 37° C. (p<0.05).

MES-SA/Dx5 cells [4] = assay: Proliferation of doxorubicin-resistant cells, continuous 72 h exposure
Experimental: To test the ability of the ELP doxorubicin carrier to overcome this drug resistance, a uterine cancer cell line (MES-SA) and its doxorubicin resistant subline MES-SA/Dx5 were treated with either free doxorubicin or ELP-delivered doxorubicin.
A major problem with classical chemotherapy is the development of drug resistance. The most common mechanism of resistance is expression of a drug efflux pump (MDR1) by the cancer cells in response to drug treatment. This pump can remove drugs from the cells, and, though induced by one drug, it can act on a wide variety of others, resulting in a phenomenon called multi-drug resistance. […] The present inventors used this cell line to determine whether ELP delivered DOX can overcome MDR1-mediated resistance to doxorubicin. MES-SA/Dx5 cells were incubated with Tat-ELP-GFLG-DOX (SEQ ID NO: 3) continuously for 72 h.

[5] = tested on: MES-SA uterine sarcoma cells; conditions: for IC50: cells counted after 72 h, ± SEM
Experimental: MES-SA cells were treated for 1 h at 37 or 42° C. with 5 μM Tat-ELP-GFLG-DOX (SEQ ID NO: 3); ELP-GFLG-DOX (SEQ ID NO: 3), which lacks the Tat cell penetrating peptide; or Tat-ELP-GFLG (SEQ ID NO: 3), which is not labeled with DOX. After the 1 h treatment, cells were rinsed and fresh media was replaced for 72 h. Cells remaining after 72 h were collected by trypsinization and counted using a Coulter counter. […] Similarly, the control polypeptide which lacks the Tat sequence was not cytotoxic, likely because it cannot efficiently enter the cells.
1.8 Cytotoxicity Assay. Cells were plated and treated for 1 h at 37° C. and 42° C. as described above with Tat-ELP1-GFLG-Dox (SEQ ID NO: 3), Tat-ELP2-GFLG-Dox (SEQ ID NO: 3), or control polypeptides lacking the Tat sequence or unlabeled with Dox. Cells were rinsed and harvested 72 h after treatment by trypsinization, collected by centrifugation, and resuspended in isotonic buffer. Cell number was determined using a Coulter counter and expressed as a percentage of untreated cells.
1.10. Data Fitting and Statistical Analysis. The concentration dependence of the Tt was fit with a logarithmic equation using Microsoft Excel. Dose-response curves were fit using exponential or sigmoid equations as applicable using Microcal Origin in order to determine the 50% inhibitory concentration (IC50). […] The significance of the thermal targeting index was assessed by comparing the normothermia group with the hyperthermia group using a paired Student's t-test in Microsoft Excel. p values of less than 0.05 were considered statistically significant. Polypeptide uptake and caspase activation were analyzed for statistical differences using one-way ANOVA analyses with post-hoc Scheffe's tests for pair-wise comparisons of treatment groups. The statistical significance level was p<0.05.
3.5. Cytotoxicity of ELP-delivered Dox. The growth-inhibitory activity of Tat-ELP-GFLG-Dox (SEQ ID NO: 3) was evaluated in the MES-SA uterine sarcoma cell line. MES-SA cells were treated for 1 h at 37° C. or 42° C. with various concentrations of Tat-ELP-GFLG-Dox (SEQ ID NO: 3); ELP-GFLG-Dox (SEQ ID NO: 3), which lacks the Tat cell penetrating peptide, the Tat-ELP-GFLG (SEQ ID NO: 3) polypeptide without Dox; or free Dox. After the 1 h treatment, the cells were rinsed and fresh media was replaced for 72 h. Cells remaining after 72 h were rinsed, collected by trypsinization, and counted using a Coulter counter. […] The toxicity of the unlabeled Tat-ELP-GFLG (SEQ ID NO: 3) protein was negligible when treated below the Tt.

MES-SA cells [6] = assay: DIC microscopy of apoptotic cell morphology; conditions: 10 μM, 1 h, temperature not distinguished
Experimental: 1.9. Apoptosis Assays. For differential interference contrast (DIC) microscopy, MES-SA cells were plated onto 22 mm^2 coverslips at 50% confluence. Cells were treated as described above with the indicated protein, rinsed with PBS, and mounted onto glass slides. The unfixed cells were imaged immediately using a Zeiss Axiovert 200 DIC microscope with a 40× oil immersion objective and a Coolsnap HQ camera.
2.6. Induction of Apoptosis. […] This effect was documented by treating MES-SA cells adhered to glass cover slips with each construct and imaging them by DIC microscopy. Cells were treated for 1 h as described above, then immediately mounted on slides and imaged without fixation. […] Untreated cells were spread onto the glass, and morphological features such as nuclei and endocytic vesicles were readily visible. This morphology was not altered by simply exposing the cells to hyperthermia. […] However, such effects were minor and limited to a fraction of the cells. […] All cells examined were rounded with no discernable nucleus and fragmented chromosomes.

Q: With `COc1cccc2c1C(=O)c1c(O)c3c(c(O)c1C2=O)C[C@@](O)(C(=O)CO)C[C@@H]3O[C@H]1C[C@H](N)[C@H](O)[C@H](C)O1` [Dox, doxorubicin] as the compound, how does the “Drug efflux: Dox fluorescence histogram after removal of the drug” value (MES-SA/Dx5 cells [1]) read?
A: two populations

Q: What about the “Intracellular localization of Dox” value (MES-SA cells [2]) of the same compound?
A: exclusively in the cell nucleus; also recorded: localizes entirely in the nucleus

Q: What about the “Enhancement of percent caspase positive cells at 42° C. versus 37° C.” value (MES-SA cells [3]) of the same compound?
A: not affected by hyperthermia

Q: And the “Caspase activation / apoptosis induction” value (MES-SA cells [3]; temperature not distinguished)?
A: induced apoptosis

Q: What about the “Resistance of MES-SA/Dx5 relative to MES-SA cells” value (MES-SA/Dx5 cells [4]) of the same compound?
A: 100 times

Q: And the “Resistance of MES-SA/Dx5 relative to MES-SA cells” value (MES-SA/Dx5 cells [4]; continuous 72 h exposure)?
A: about 100 fold

Q: What about the Cytotoxicity in words [5] of the same compound?
A: more cytotoxic than the polymer-delivered drug

Q: What about the “IC50 relative to Tat-ELP-GFLG delivered Dox (times lower)” value [5] of the same compound?
A: about 150 times

Q: And the IC50 ([5]; 1 h treatment at 37° C., read-out: IC50 (37° C.))?
A: 130 ± 10 nM

Q: What about the IC50 ([5]; 1 h treatment at 42° C., read-out: IC50 (42° C.)) of the same compound?
A: 58 ± 20 nM

Q: And the “Thermal Targeting Index (IC50 37°/IC50 42°)” value ([5]; IC50 at 37° C. divided by IC50 at 42° C.)?
A: 2.3 †

Q: What about the “Cell morphology (hallmarks of apoptosis)” value (MES-SA cells [6]) of the same compound?
A: noticeable rounding and membrane blebbing
